Assay results as given in PubChem BioAssay AID2060363 (Molecular Pharmacology Branch, DTP, NCI, 2025).
Several values for one entry are separate records, joined by “and”; a condition that tells them apart may be missing. Equal entries are not always repeated.

Tested on: 156681-154-R-J1-PDC tumor spheroids, viability % test/control
Assay: Anticancer human tumor 156681-154-R-J1-PDC patient-derived melanoma cell line growth inhibition [TAK]
Conditions: spheroids with HUVEC and MSC; for viability, T/C: stronger effect = lower value
Description: Combinatorial screen of targeted agents with TAK-243 and ipatasertib in multi-cell type tumor spheroids
A high-throughput screen of multi-cell type tumor spheroids was designed to identify active combinations of targeted small molecules and TAK-243 or ipatasertib. Complex spheroids include a stromal component modeled by human endothelial cells (HUVEC) and fibroblasts modeled by human mesenchymal stem cells (MSCs). The concentration ranges selected for each drug and investigational agent were based upon clinically achievable concentrations if the clinical Cmax of the agent was known.
Compounds. The drugs and investigational agents: TAK-243 (785004), ipatasertib (767898), everolimus (733504), selumetinib (741078), bortezomib (756655), trametinib (758246), ixazomib (758254), vemurafenib (761431), dabrafenib (764134), sapanisertib (764658), alpelisib (765974), and copanlisib (816437), were obtained from the National Cancer Institute (NCI) Developmental Therapeutics Program Chemical Repository. The FDA-approved anticancer drug set is available from the NCI Developmental Therapeutics Program. […] The stock solutions were prepared in dimethyl sulfoxide (DMSO, Sigma-Aldrich, St. Louis, MO, cat. D2650) at 800-fold the tested concentration and stored at -70 degrees C prior to their use. All drugs and investigational agents were tested over a range starting from a high concentration at or near the clinical Cmax and decreasing in half-log increments. If the clinical Cmax for an agent had not been determined, the highest concentration tested was 10 microM.
NCI60 Cell Culture. NCI60 cell lines were obtained from the NCI Developmental Therapeutics Program Tumor Repository. For each lot of cells, the Repository performed Applied Biosystems AmpFLSTR Identifiler testing with PCR amplification to confirm consistency with the published Identifier STR profile for each cell line. Cells were kept in continuous culture for no more than 20 passages. The optimal seeding densities for each of the cell lines at each time point assessed were determined prior to performing the concentration response studies. Briefly, the NCI60 human tumor lines were grown as monolayers in RPMI 1640 medium supplemented with 10% FBS and 2 mmol/L L-glutamine.
An additional 2 lines were from the NCI60 cell line panel including melanomas, MALME-3M and SK-MEL-2. Pooled donor human umbilical vein endothelial cells (HUVEC, Lonza, cat. CC-2519) and human mesenchymal stem cells (hMSC, Lonza, cat. PT-2501) were purchased from Lonza (Walkersville, MD).
PDMR cell lines were grown in complete medium (DC medium): Dulbecco's modified Eagle's medium (DMEM)/F12 supplemented with 5% fetal bovine serum (FBS), 2 mM L-glutamine, 100 U/mL penicillin and 100 µg/ml streptomycin, 0.4 µg/ml hydrocortisone, 10 ng/ml epidermal growth factor (EGF) recombinant human protein, 24 µg/mL adenine, and 0.1 mg/mL primocin. During culture from frozen stock vials, PDMR cells were cultured in the same medium containing 10 µM Y-27632 (see Table 3). The PDCs were cultured in complete DMEM/F12 media without 10 microM Y-27632 dihydrochloride for at least two passages prior to the screen. The pooled donor HUVEC and hMSC were cultured in endothelial cell growth medium 2 (PromoCell, Heidelberg, Germany, cat. C-22011) and mesenchymal stem cell growth medium 2 (PromoCell, cat. C-28009), respectively. For all experiments, HUVEC and hMSC were used at passages </=5.
For the pre-screen, cell seeding densities were determined from a titration spanning the range from 5,000 to 313 cells per well. The mct-spheroids including 60% malignant cells, 25% HUVEC and 15% MSC dispensed as a mixture into U-bottom Ultra-Low Attachment 384-well plates (Corning, NY)
High-throughput Drug Combination Screening.
Prior to their inoculation into 384-well plates, malignant cells, HUVEC, and hMSC were removed from T flasks using TrypLE express (Thermo Fisher Scientific, cat. 12605036) and harvested by centrifugation for 5 min at 233 x g. […]
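Further: spheroids exposed to compounds for 7 days before the endpoint.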

SMILES	IC50 (curve of compound)	viability, T/C (compound 0.0316 µM)	viability, T/C (compound 0.1 µM)	viability, T/C (compound 0.316 µM)	viability, T/C (compound 1 µM)	viability, T/C (compound 0.000316 µM)	viability, T/C (compound 0.001 µM)	viability, T/C (compound 0.00316 µM)	viability, T/C (compound 0.01 µM)	other results
CC(C)CC(NC(=O)C(Cc1ccccc1)NC(=O)c1cnccn1)B(O)O (stereo not given)	2.55 nM and 2.05 nM	–	–	–	–	98.8% and 103%	94.7% and 103%	39.8% and 19.6%	0.36% and 0.32%	viability, T/C (compound 31.6 pM): 91.3% and 98.6%; viability, T/C (compound 0.0001 µM): 90.4% and 95.9%
CC(C)NCC(C(=O)N1CCN(c2ncnc3c2C(C)CC3O)CC1)c1ccc(Cl)cc1 (stereo not given)	–	–	–	–	–	–	–	–	–	viability, T/C (compound 0.3 µM): 99.2% [middle of 10 runs]; viability, T/C (compound 0.949 µM): 91.1% [middle of 10 runs]; viability, T/C (compound 3 µM): 70.3% [middle of 10 runs]; viability, T/C (compound 9.49 µM): 41.4% [middle of 10 runs]; viability, T/C (compound 30 µM): 19.1% [middle of 10 runs]; IC50 (compound alone, run of 02/20/2020): 6.66 µM [middle of 10 runs]
CC(C)n1nc(-c2ccc3oc(N)nc3c2)c2c(N)ncnc21	33.9 nM and 43.3 nM	48% and 56.1%	33.3% and 34.1%	–	–	97.2% and 94.8%	95.3% and 91.7%	81.4% and 96.3%	80.2% and 86.3%	–
CCCS(=O)(=O)Nc1ccc(F)c(C(=O)c2c[nH]c3ncc(-c4ccc(Cl)cc4)cc23)c1F	–	–	–	115% and 97.9%	107% and 92.3%	–	–	–	–	viability, T/C (compound 3.16 µM): 106% and 99.3%; viability, T/C (compound 10 µM): 12.5% and 20.2%; viability, T/C (compound 31.6 µM): 103% and 16.7%; viability, T/C (compound 100 µM): 83.9% and 100%
COC1CC2CCC(C)C(O)(O2)C(=O)C(=O)N2CCCCC2C(=O)OC(C(C)CC2CCC(OCCO)C(OC)C2)CC(=O)C(C)C=C(C)C(O)C(OC)C(=O)C(C)CC(C)C=CC=CC=C1C (stereo not given)	92.9 nM and > 100 nM	62.3% and 59.9%	46% and 51.8%	–	–	98.5% and 87%	81.8% and 87.3%	70% and 71.2%	59.4% and 64.1%	–

Further lines, with some results ahead:

IC50 (curve of compound)	SMILES	viability, T/C (compound 0.0316 µM)	viability, T/C (compound 0.1 µM)	viability, T/C (compound 0.316 µM)	viability, T/C (compound 1 µM)	viability, T/C (compound 0.000316 µM)	viability, T/C (compound 0.001 µM)	viability, T/C (compound 0.00316 µM)	viability, T/C (compound 0.01 µM)	other results
5.3 nM and 4.35 nM	CC(=O)Nc1cccc(-n2c(=O)n(C3CC3)c(=O)c3c(Nc4ccc(I)cc4F)n(C)c(=O)c(C)c32)c1	–	–	–	–	–	–	–	–	viability, T/C (compound 94.9 pM): 102% and 101%; viability, T/C (compound 0.0003 µM): 105% and 111%; viability, T/C (compound 0.000949 µM): 100% and 102%; viability, T/C (compound 0.003 µM): 83.8% and 66.8%; viability, T/C (compound 0.00949 µM): 15.5% and 14.8%; viability, T/C (compound 0.03 µM): 8.87% and 8.9%
264 nM and 243 nM	CC(C)(C)c1nc(-c2cccc(NS(=O)(=O)c3c(F)cccc3F)c2F)c(-c2ccnc(N)n2)s1	106% and 91.4%	95.8% and 92.3%	41.5% and 37.8%	17.2% and 17.8%	–	–	–	–	viability, T/C (compound 3.16 µM): 14.4% and 14.5%; viability, T/C (compound 10 µM): 18%
19.7 nM and 17.9 nM	CC(C)CC(NC(=O)CNC(=O)c1cc(Cl)ccc1Cl)B1OC(=O)CC(CC(=O)O)(C(=O)O)O1 (stereo not given)	18.1% and 10.3%	0.44% and 0.46%	–	–	104% and 94.9%	101% and 104%	99.5% and 101%	95.7% and 90.9%	–
67.3 nM and 67 nM	COc1c(OCCCN2CCOCC2)ccc2c3n(c(=NC(=O)c4cnc(N)nc4)nc12)CCN3	67.9% and 77.9%	41.9% and 35.2%	13.5% and 10.8%	2.91% and 1.78%	–	–	101% and 102%	91.1% and 89.1%	–
> 10000 nM	Cc1nc(NC(=O)N2CCCC2C(N)=O)sc1-c1ccnc(C(C)(C)C(F)(F)F)c1 (stereo not given)	97.2% and 99.7%	94.9% and 98.4%	86.1% and 86.6%	86.8% and 74.4%	–	–	–	–	viability, T/C (compound 3.16 µM): 67.9% and 64.5%; viability, T/C (compound 10 µM): 52.8% and 56.2%
782 nM and 685 nM	Cn1cnc2c(F)c(Nc3ccc(Br)cc3Cl)c(C(=O)NOCCO)cc21	–	–	–	–	–	–	–	–	viability, T/C (compound 0.00949 µM): 95.4% and 99.5%; viability, T/C (compound 0.03 µM): 92.4% and 89.7%; viability, T/C (compound 0.0949 µM): 97.8% and 89.7%; viability, T/C (compound 0.3 µM): 93.4% and 95.4%; viability, T/C (compound 0.949 µM): 41.3% and 32.8%; viability, T/C (compound 3 µM): 13% and 12.3%
